This is an account of results in ChEMBL document CHEMBL1143302, “Identification of 3-amido-4-anilinoquinolines as potent and selective inhibitors of CSF-1R kinase” (Bioorg Med Chem Lett, 2009).

Format in all cases: ADME, organism-based
A short description of series [1]: Half life in rat at 3 mg/kg, iv and 10 mg/kg, po. The note with it: in vivo.
The nature of series [2]: Clearance in rat at 3 mg/kg, iv and 10 mg/kg, po. The note with it: in vivo.
A short description of series [3]: Volume of distribution at steady state in rat at 3 mg/kg, iv and 10 mg/kg, po. The note with it: in vivo, read-out: Vdss.
Series [4] in a line: Bioavailability in rat at 3 mg/kg, iv and 10 mg/kg, po. The note with it: in vivo.

SMILES strings stand for the structures.

In the case of `COc1cc2c(Nc3ccc(F)c(Cl)c3)c(C(N)=O)cnc2cc1OCCN(C)C`, the half-life (commonly how long it takes for the measured level to halve) in series [1] was 126 min. Besides, the clearance in series [2] stood at 210 mL/min/kg. Besides, the Vd in series [3] was 40 L/kg.

`COc1cc2ncc(C(N)=O)c(Nc3ccc(F)cc3)c2cc1OC`: the bioavailability (usually the share of a dose that reaches the circulation, judged against a reference dose that is usually intravenous) in series [4] turned out to be 96%. Besides, the half-life in series [1] was 54 min. In series [2], this compound had a clearance of 7 mL/min/kg. For the same compound, the Vd in series [3] was found to be 0.3 L/kg.

Consider `COc1cc2c(Nc3cccc(Cl)c3Cl)c(C(N)=O)cnc2cc1NCCN(C)C`, for which, in series [1], the half-life was 144 min. For the same compound, the clearance in series [2] worked out at 90 mL/min/kg. Also, in series [3], the Vd was found to be 19 L/kg.

For the compound `COc1cc2c(Nc3ccc(F)c(Cl)c3)c(C(N)=O)cnc2cc1OCCN1CCCC1`, the half-life in series [1] was 144 min. This compound came in with a clearance in series [2] of 270 mL/min/kg. For the same compound, the Vd in series [3] was found to be 52 L/kg.

On to `COc1cc2ncc(C(N)=O)c(Nc3cccc(Cl)c3Cl)c2cc1NCCN1CCCCC1`, for which the half-life in series [1] was 96 min. Besides, the clearance in series [2] came to 78 mL/min/kg. Besides, the Vd in series [3] came to 8.5 L/kg.

On to `COc1cc2ncc(C(N)=O)c(Nc3cccc(Cl)c3Cl)c2cc1OC`, for which the half-life in series [1] was 30 min. The compound further yielded a clearance in series [2] of 115 mL/min/kg. The Vd in series [3] came out at 4.1 L/kg.

In turn, `COc1cc2c(Nc3ccc(F)c(Cl)c3)c(C(N)=O)cnc2cc1OCCNC1CC1` gave a half-life in series [1] of 102 min. For the same compound, in series [2], the clearance came to 230 mL/min/kg. Also, the Vd in series [3] is 30 L/kg.

`CCOc1cc2ncc(C(N)=O)c(Nc3cccc(Cl)c3Cl)c2cc1NCCN1CCCCC1` showed a half-life in series [1] of 96 min. The compound also showed a clearance in series [2] of 110 mL/min/kg. In addition, the Vd in series [3] is 12 L/kg.

As to `COc1cc2ncc(C(N)=O)c(Nc3ccc(F)c(Cl)c3)c2cc1OC`, the bioavailability in series [4] came out at 24%. The half-life in series [1] was 36 min. This compound came in with a clearance in series [2] of 59 mL/min/kg. In addition, the Vd in series [3] amounted to 1.8 L/kg.

In the case of `COc1cc2c(Nc3ccc(F)cc3F)c(C(N)=O)cnc2cc1NCCN(C)C`, the half-life in series [1] is 114 min. In series [2], this compound registered a clearance of 220 mL/min/kg. The Vd in series [3] came to 36 L/kg.
